US5162336A, “Tetrahydro-pyrido-indoles as cholecystokinin and gastrin antagonists” (Rhone-Poulenc Rorer Pharmaceuticals Inc., priority 1990, dated 1992)

Molecular target: T1, Gastrin receptor (Cavia porcellus, UniProt H0VZC5)
T1 construct: The fundic mucosa is gently scraped off the submucosa; from tissue; host or cells: gastric glands from fundic mucosa of Hartley guinea pig
T1 sequence (H0VZC5 1-426): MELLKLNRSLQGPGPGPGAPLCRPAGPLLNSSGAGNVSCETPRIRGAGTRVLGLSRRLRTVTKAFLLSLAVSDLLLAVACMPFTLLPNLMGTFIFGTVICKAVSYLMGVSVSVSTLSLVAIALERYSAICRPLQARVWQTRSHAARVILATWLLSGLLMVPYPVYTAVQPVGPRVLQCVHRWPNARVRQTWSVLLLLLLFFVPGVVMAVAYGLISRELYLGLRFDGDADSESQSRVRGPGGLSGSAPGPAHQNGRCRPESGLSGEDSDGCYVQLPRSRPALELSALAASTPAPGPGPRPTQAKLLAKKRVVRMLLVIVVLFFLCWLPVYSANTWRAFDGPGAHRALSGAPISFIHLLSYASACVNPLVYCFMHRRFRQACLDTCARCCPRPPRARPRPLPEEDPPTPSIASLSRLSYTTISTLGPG
Test: Gastrin receptor binding assay (displacement of 125I-(Leu-15)-Gastrin from guinea pig fundic glands)
Parameters: species or system guinea pig (Hartley Strain)
Conditions: guinea pig fundic mucosa glands, 25° C., 30 min, read-out: In vitro Binding Data IC50 Gastrin
Procedure, shortened: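 Isolated gastric fundic glands from Hartley guinea pig (collagenase digestion, 2x10^5 glands/ml) incubated 30 min at 25 °C under 95% O2/5% CO2 with tracer ^125I-(Leu-15)-gastrin and compound in triplicate. Bound tracer collected on glass fiber filters and gamma-counted; nonspecific defined with 25 μM (Leu-15)-gastrin stock. IC50 = concentration giving 50% loss of specific binding, from log-concentration plot.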

IC50: > 300 µM
Structure (SMILES): CCOC(=O)c1cccc(NC(=O)[C@H]2Cc3c([nH]c4ccccc34)CN2C(=O)OCc2ccccc2)c1 [Example 16, ethyl 3-N-[(3R)-2-carbobenzoxy-1,2,3,4-tetrahydro-9H-pyrido[3,4-b]indole-3-carboxyl]aminobenzoate]
